As a reminder, the AC50 is the concentration giving half of the maximal activity seen. As usually defined, the Emax is the maximal effect, on the per cent scale that the assay sets.

Data on 23 compounds can be found in US20230278984A1 (Global Blood Therapeutics, Inc., priority 2020, published 2023).

The target in this assay is T1, Human pyruvate kinase R (PKR) (Homo sapiens, UniProt P30613).
T1 construct: Human pyruvate kinase R (PKR), residues 14-574; 6x-His (N, cleaved yes); 8x-Arg (N, cleaved yes); SUMO (N, cleaved yes); host or cells: E. coli
T1 sequence (P30613 14-574): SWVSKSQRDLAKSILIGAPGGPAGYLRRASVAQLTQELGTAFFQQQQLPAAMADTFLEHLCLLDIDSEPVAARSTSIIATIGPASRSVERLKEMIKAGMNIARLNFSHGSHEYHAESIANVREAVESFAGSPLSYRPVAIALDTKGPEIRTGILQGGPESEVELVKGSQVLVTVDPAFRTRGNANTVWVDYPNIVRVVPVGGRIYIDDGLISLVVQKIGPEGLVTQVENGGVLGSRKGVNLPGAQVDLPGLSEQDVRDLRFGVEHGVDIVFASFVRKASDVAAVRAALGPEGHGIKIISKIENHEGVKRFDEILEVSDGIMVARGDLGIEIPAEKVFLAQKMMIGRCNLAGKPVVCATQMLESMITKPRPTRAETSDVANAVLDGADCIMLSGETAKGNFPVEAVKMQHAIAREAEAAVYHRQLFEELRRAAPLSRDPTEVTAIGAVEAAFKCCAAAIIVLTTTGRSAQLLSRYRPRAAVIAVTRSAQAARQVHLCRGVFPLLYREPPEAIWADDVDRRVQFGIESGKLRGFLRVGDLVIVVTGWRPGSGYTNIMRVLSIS
As to the kind of experiment: Biochemical assay for activation of pyruvate kinase R (Kinase-Glo luminescence measurement of ATP generation). Particulars: for AC50: PKR biochemical assay, 0.1 nM PKR, 0.3 mM ADP, 2 mM FBP, 0.1 mM PEP; for Emax: maximal activation level relative to the activation level achieved by the literature compound AG-348 @ 10 μM. The procedure: Human pyruvate kinase R (PKR), residues 14-574, and human pyruvate kinase M2, residues 1-531, were cloned into expression plasmids and obtained from ATUM Bio (Newark, Calif.). Proteins were translated as fusions with 6×-His, 8×-Arg, and SUMO at the N-terminus. A third construct of human PKR was truncated, residues 50-574, and similarly cloned for use in crystallography experiments. All proteins were cloned, expressed in E. coli, and purified using similar protocols. Cells were grown at 30° C. in Luria-Bertani broth supplemented with 0.4% glucose to OD600=0.8 and induced with 0.4 mM IPTG at 16° C. for 18 hours. Cells were harvested by centrifugation, resuspended in 50 mM potassium phosphate pH 8.0, 500 mM NaCl, 25 mM imidazole pH 8.0, and 3 mM (3-mercaptoethanol. Cells were lysed using a LM20 microfluidizer from Microfluidics (Westwood, Mass.). The crude lysate was immediately supplemented with 0.2 mM phenylmethylsulfonyl fluoride (PMSF) and centrifuged at 20,000 g for 20 minutes. The soluble fraction was subsequently incubated with 2 mL Ni-NTA (GE Healthcare) per 1,000 ODs for 1 hour at 4° C. Following incubation with the Ni-NTA resin, lysate was removed by pelleting resin at 2,500 g for 3 minutes and washed 3 times with 9 bed volumes of 50 mM potassium phosphate pH 8.0, 500 mM NaCl, 25 mM imidazole, and 3 mM 3-mercaptoethanol. Following the batch wash Ni-NTA resin was loaded onto a gravity column and His-tagged protein was eluted with 6 bed volumes of 10 mM Tris/HCl pH 8.0, 200 mM NaCl, 500 mM imidazole, and 3 mM (3-mercaptoethanol. Eluted protein was dialyzed overnight against 10 mM Tris/HCl pH 8.0, 200 mM NaCl, and 1 mM DTT and the 6×-His-8×-Arg-SUMO-tag was cleaved using a 20:1 molar ratio of protein:3C protease. The protein was purified by anion exchange chromatography on a HiTrapQ or MonoQ 10/100 GL column (GE Healthcare) via a linear NaCl gradient and twice by size exclusion chromatography using a Superdex S200 26/60 column (GE Healthcare) run in 10 mM Tris/HCl pH 8.0, 200 mM NaCl, 10 mM MgCl2, 1 mM DTT. Proteins were concentrated to −12 mg/mL for crystallization and flash frozen for storage.
Biochemical Assay for Activation of Pyruvate Kinase R
Activation of pyruvate kinase R (PKR) and pyruvate kinase M2 (PKM2) were measured using a luminescence based measurement of ATP generation and the Kinase-Glo luminescent kinase reagent kit.
A general note: Kinase-Glo reads ATP consumption through a luciferase reaction.

Regarding `Cc1nc(CNC(=O)NCc2ncnn2-c2ccc3ncncc3c2)n(-c2ccc(Cl)c(F)c2)n1` [Compound 127, 1-{[1-(4-chloro-3-fluorophenyl)-3-methyl-1H-1,2,4-triazol-5-yl]methyl}-3-{[1-(quinazolin-6-yl)-1H-1,2,4-triazol-5-yl]methyl}urea], half-maximal activity (AC50) was put at 47 nM and the Emax was determined as 45%.
Take `Cc1ccc(-n2ncnc2CNC(=O)NCc2ncnn2-c2ccc(C)c(F)c2)cc1F` [Compound 67, 1,3-bis({[1-(3-fluoro-4-methylphenyl)-1H-1,2,4-triazol-5-yl]methyl})urea]: half-maximal activity (AC50) was put at 44 nM and the maximum response (Emax) worked out at 58%.
Regarding `COCCc1nc(CNC(=O)NCc2nc(C)nn2-c2ccc3cccnc3c2)n(-c2ccc(Cl)c(F)c2)n1` [Compound 100], the activity was half-maximal at 510 nM (AC50) and the maximum response (Emax) is 106%.
In the case of `O=C(NCc1nnnn1-c1cccc(Cl)c1)NCc1nnnn1-c1cccc(Cl)c1` [Compound 2, 1,3-bis({[1-(3-chlorophenyl)-1H-1,2,3,4-tetrazol-5-yl]methyl})urea], the AC50 was 530 nM and the Emax worked out at 69%.
On the same counts, the results for `CNCc1cc(-n2nc(C)nc2CNC(=O)NCc2nc(C)nn2-c2ccc(Cl)c(F)c2)ccc1Cl` [Compound 99, 1-[(1-{4-chloro-3-[(methylamino)methyl]phenyl}-3-methyl-1H-1,2,4-triazol-5-yl)methyl]-3-{[1-(4-chloro-3-fluorophenyl)-3-methyl-1H-1,2,4-triazol-5-yl]methyl}urea] are 69 nM and 69%.
Compound `COc1ccc(-n2nnnc2CNC(=O)NCc2nnnn2-c2ccc(OC)cc2)cc1` [Compound 69, 1,3-bis({[1-(4-methoxyphenyl)-1H-1,2,3,4-tetrazol-5-yl]methyl})urea] registered a half-maximal activity concentration (AC50) of 540 nM and an Emax of 92%.
On the same counts, the results for `Cc1ccc(-n2ncnc2CNC(=O)NCc2ncnn2-c2ccc(C)nc2)cn1` [Compound 74, 1,3-bis({[1-(6-methylpyridin-3-yl)-1H-1,2,4-triazol-5-yl]methyl})urea] are 2800 nM and 36%.
On the same counts, the results for `O=C(NCc1nnnn1-c1ccc(C(F)(F)F)cc1)NCc1nnnn1-c1ccc(C(F)(F)F)cc1` [Compound 115, 1,3-bis({1-[4-(trifluoromethyl)phenyl]-1H-1,2,3,4-tetrazol-5-yl}methyl)urea] are 1700 nM and 148%.
Turning to `Cc1nc(CNC(=O)NCc2ncnn2-c2cc(F)c3nccnc3c2)n(-c2ccc(Cl)c(F)c2)n1` [Compound 101, 1-{[1-(4-chloro-3-fluorophenyl)-3-methyl-1H-1,2,4-triazol-5-yl]methyl}-3-{[1-(8-fluoroquinoxalin-6-yl)-1H-1,2,4-triazol-5-yl]methyl}urea], the activity was half-maximal at 93 nM (AC50) and the Emax was found to be 77%.
As to `Cc1nc(CNC(=O)NCc2ncnn2-c2cnc3c(F)cccc3c2)n(-c2ccc(Cl)c(F)c2)n1` [Compound 136, 3-{[1-(4-chloro-3-fluorophenyl)-3-methyl-1H-1,2,4-triazol-5-yl]methyl}-1-{[1-(8-fluoroquinolin-3-yl)-1H-1,2,4-triazol-5-yl]methyl}urea], the AC50 was 47 nM and the Emax was 94%.
The like results for `Cc1nc(CNC(=O)NCc2ncnn2-c2cc(F)c3cncnc3c2)n(-c2ccc(Cl)c(F)c2)n1` [Compound 108, 1-{[1-(4-chloro-3-fluorophenyl)-3-methyl-1H-1,2,4-triazol-5-yl]methyl}-3-{[1-(5-fluoroquinazolin-7-yl)-1H-1,2,4-triazol-5-yl]methyl}urea] were, in that order, 900 nM and 74%.
The like results for `Cc1nc(CNC(=O)NCc2ncnn2CC2CCOC(C)(C)C2)n(-c2ccc(Cl)c(F)c2)n1` (stereo not shown) [Compound 14, 3-{[1-(4-chloro-3-fluorophenyl)-3-methyl-1H-1,2,4-triazol-5-yl]methyl}-1-({1-[(2,2-dimethyloxan-4-yl)methyl]-1H-1,2,4-triazol-5-yl}methyl)urea] were, in that order, 1400 nM and 84%.
The like results for `O=C(NCc1nc(CF)nn1-c1ccc(Cl)c(F)c1)NCc1n[nH]c(=O)n1-c1ccc(Cl)c(F)c1` [Compound 107, 1-{[1-(4-chloro-3-fluorophenyl)-3-(fluoromethyl)-1H-1,2,4-triazol-5-yl]methyl}-3-{[4-(4-chloro-3-fluorophenyl)-5-oxo-4,5-dihydro-1H-1,2,4-triazol-3-yl]methyl}urea] were, in that order, 30 nM and 107%.
`CCN(Cc1ncnn1-c1ccc(Cl)c(F)c1)C(=O)NCc1nc(C)nn1-c1cnc2ccccc2c1` [Compound 143, 1-{[1-(4-chloro-3-fluorophenyl)-1H-1,2,4-triazol-5-yl]methyl}-1-ethyl-3-{[3-methyl-1-(quinolin-3-yl)-1H-1,2,4-triazol-5-yl]methyl}urea] came in with a concentration at half-maximal activity (AC50) of 140 nM and an Emax of 112%.
The like results for `O=C(NCc1ncnn1-c1ccc(Cl)c(F)c1)NCc1ncnn1-c1nc2cc(Cl)ccc2s1` [Compound 35, 1-{[1-(5-chloro-1,3-benzothiazol-2-yl)-1H-1,2,4-triazol-5-yl]methyl}-3-{[1-(4-chloro-3-fluorophenyl)-1H-1,2,4-triazol-5-yl]methyl}urea] were, in that order, 3200 nM and 28%.
The like results for `O=C(NCc1nnnn1-c1ccc(F)c(F)c1)NCc1nnnn1-c1ccc(F)c(F)c1` [Compound 56, 1,3-bis({[1-(3,4-difluorophenyl)-1H-1,2,3,4-tetrazol-5-yl]methyl})urea] were, in that order, 1100 nM and 106%.
`Cc1nc(CNC(=O)NCc2ncnn2-c2ccc3nccnc3c2)n(-c2ccc(Cl)c(F)c2)n1` [Compound 40, 3-{[1-(4-chloro-3-fluorophenyl)-3-methyl-1H-1,2,4-triazol-5-yl]methyl}-1-{[1-(quinoxalin-6-yl)-1H-1,2,4-triazol-5-yl]methyl}urea] showed a half-maximal activity concentration (AC50) of 150 nM and a maximal effect (Emax) of 73%.
`Cc1nc(CNC(=O)NCc2ncnn2-c2cc(C)c3cccnc3c2)n(-c2ccc(Cl)c(F)c2)n1` [Compound 113, 1-{[1-(4-chloro-3-fluorophenyl)-3-methyl-1H-1,2,4-triazol-5-yl]methyl}-3-{[1-(5-methylquinolin-7-yl)-1H-1,2,4-triazol-5-yl]methyl}urea] gave an AC50 of 40 nM and a maximal effect (Emax) of 116%.
`CN(Cc1nnnn1-c1ccc(Cl)c(F)c1)C(=O)NCc1nnnn1-c1ccc(Cl)c(F)c1` [Compound 26, 1,3-bis({[1-(4-chloro-3-fluorophenyl)-1H-1,2,3,4-tetrazol-5-yl]methyl})-1-methylurea] yielded an AC50 of 73 nM and an Emax of 93%.
The like results for `Cc1cncc(-n2ncnc2CNC(=O)NCc2nc(C)nn2-c2ccc(Cl)c(F)c2)c1` [Compound 137, 1-{[1-(4-chloro-3-fluorophenyl)-3-methyl-1H-1,2,4-triazol-5-yl]methyl}-3-{[1-(5-methylpyridin-3-yl)-1H-1,2,4-triazol-5-yl]methyl}urea] were, in that order, 180 nM and 99%.
The like results for `CN(Cc1nnnn1-c1ccc(Cl)c(F)c1)C(=O)NCc1ncnn1-c1ccc(Cl)c(F)c1` [Compound 32, 1-{[1-(4-chloro-3-fluorophenyl)-1H-1,2,3,4-tetrazol-5-yl]methyl}-3-{[1-(4-chloro-3-fluorophenyl)-1H-1,2,4-triazol-5-yl]methyl}-1-methylurea] were, in that order, 210 nM and 74%.
The like results for `Cc1nc(CNC(=O)NCc2ncnn2CC2(O)CCCCC2)n(-c2ccc(Cl)c(F)c2)n1` [Compound 23, 3-{[1-(4-chloro-3-fluorophenyl)-3-methyl-1H-1,2,4-triazol-5-yl]methyl}-1-({1-[(1-hydroxycyclohexyl)methyl]-1H-1,2,4-triazol-5-yl}methyl)urea] were, in that order, 230 nM and 72%.
For the compound `Cc1nc(CNC(=O)NCc2ncnn2-c2cnc3cccc(F)c3c2)n(-c2ccc(Cl)c(F)c2)n1` [Compound 140, 1-{[1-(4-chloro-3-fluorophenyl)-3-methyl-1H-1,2,4-triazol-5-yl]methyl}-3-{[1-(5-fluoroquinolin-3-yl)-1H-1,2,4-triazol-5-yl]methyl}urea], half-maximal activity (AC50) was put at 25 nM and the Emax turned out to be 72%.
